Measured values published in patent US5942521A, “Quinolinone derivative and anti-allergic agent with said quinolinone derivative as the active ingredient” (Dainippon Ink and Chemicals, Inc., priority 1996, dated 1999).

Legend:
[1] = system: passive cutaneous anaphylaxis (PCA) reaction; experiment: Effect on homologous passive cutaneous anaphylaxis (PCA) reaction in rats; assay type: in vivo; details: Rattus norvegicus, po, 0.5 h, male wistar rats; for inhibition in vivo at 100 mg/kg: test compounds, 100 mg/kg p.o., 1 hour before induction of anaphylaxis
Protocol: Effect on homologous passive cutaneous anaphylaxis (PCA) reaction in rats
This experimental animal model is caused by immediate type allergic reaction, namely, antigen-antibody reaction. In the following, the method of this pharmacological test will be explained.
Method: Male wistar rats (9 weeks old) were intradermally administered 0.05 ml of anti-serum against dinitrophenylated ascaris (DNP-As) into two sites on the shaved dorsal skin. 48 hours later, aminoquinolinone derivatives (test compounds) suspended in 0.5% methylcellulose (MC) were given orally at a dose of 100 mg/kg to the animals. 1 hour after administration of Test compounds, the animals were induced anaphylaxis by injection of saline (1 ml) dissolving 1 mg of trinitrophenylated ascaris (TNP-As) and 5 mg of Evans Blue into the tail vein of the animals. 30 minutes after induction of anaphylaxis, animals were anesthetized by ether and killed by bleeding, and were flayed dorsal skin. The leakage of dye was assessed by measuring the diameter (mean of shortest and longest diameter) of the blue spot on the inside surface of dorsal skin. As vehicle control group, only 0.5% MC solution was administered orally, and as positive control group, Tranilast suspended in 0.5% MC were administered orally at a dose of 200 mg/kg to the animals with the same method as the test compounds groups, The inhibition (%) of PCA reaction was calculated according to equation 1 and the result was shown in Table 1. Each experimental group consisted of 5 rats.
In the conditions of this experiment, it was considered that the compound, which inhibited PCA reaction by over forty (40) percent against that in vehicle control group, was evidently effective for immediate type allergy.
Inhibition (%)=(A-B)/A×100 (Equation 1)
A: leakage of dye in vehicle control group
B: leakage of dye in test compound group or positive control group

[2] = system: contact dermatitis induced by picryl chloride; experiment: Effect on contact dermatitis induced by picryl chloride in mice; assay type: in vivo; details: for inhibition in vivo at 20 mg/kg: test compounds, 20 mg/kg p.o. 12 hours after challenge
Protocol: Effect on contact dermatitis induced by picryl chloride in mice
The delayed type hypersensitization is inhibited by steroid, but can not be effected by known anti-allergic agents. In the following, the method of the pharmacological test will be explained.
Method: Mice, shaved their abdominal skin on previous day, were immunized by applying 0.1 ml of acetone containing 7 mg of picryl chloride to the skin of the abdomen. 7 days after immunization, the thickness of the ear was measured with a dial thickness gauge, then mice were challenged by painting […] of 1% picryl chloride olive oil solution to each side skin of left ear. 24 hours after challenge, the thickness of the left ear was measured again. The compounds of the present invention (test compounds) suspended in 0.5% MC were forcibly administered orally at a dose of 20 mg/kg 12 hours after challenge. As vehicle control group, only 0.5% MC solution was administered orally, and as positive control group, Prednisolone, steroid hormone, was administered orally at a dose of 10 mg/kg and as negative control group, Tranilast was administered orally at a dose of 200 mg/kg.
Increase (%)=(A-B)/B×100 (Equation 2)
A: thickness of the ear at 24 hours after challenge
B: thickness of the ear before challenge
Inhibition (%)=(C-D)/C×100 (Equation 3)
C: The increase (%) in vehicle control group
D: The increase (%) in test compounds group, positive control group

[3] = Mus musculus, po, ear thickness at 24 hours, read-out: Inhibition (%) of increase of ear thickness

SMILES: CCCCCCNc1ccc2c(O)c(OC)c(=O)n(C)c2c1 [compound 27, 7-hexylamino-3-methoxy-4-hydroxy-1-methyl-2(1H)-quinolinone]
- inhibition in vivo at 100 mg/kg [1]: 45%
- inhibition in vivo at 20 mg/kg [2, 3]: 46%

SMILES: CCCCCCCCOc1c(O)c2ccc(NCC=C(C)C)cc2n(C)c1=O [compound 48, 7-prenylamino-3-octyloxy-4-hydroxy-1-methyl-2(1H)-quinolinone]
- inhibition in vivo at 100 mg/kg [1]: 50%
- inhibition in vivo at 20 mg/kg [2, 3]: 53%

SMILES: CNc1ccc2c(O)c(OC/C=C(\C)CCC=C(C)C)c(=O)n(C)c2c1 [compound 31, 7-methylamino-3-geranyloxy-4-hydroxy-1-methyl-2(1H)-quinolinone]
- inhibition in vivo at 100 mg/kg [1]: 46%
- inhibition in vivo at 20 mg/kg [2, 3]: 45%

SMILES: CCCCCCCCOc1c(O)c2ccc(NC(=O)/C=C/c3ccc(OC(C)=O)c(OC)c3)cc2n(C)c1=O [compound 44, 7-(4-acetoxy-3-methoxycinnamoylamino)-3-octyloxy-4-hydroxy-1-methyl-2(1H)-quinolinone]
- inhibition in vivo at 100 mg/kg [1]: 50%
- inhibition in vivo at 20 mg/kg [2, 3]: 53%

SMILES: CCCCCCOc1c(O)c(=O)n(C)c2cc(N)ccc12 [compound 23, 7-amino-3-hydroxy-4-hexyloxy-1-methyl-2(1H)-quinolinone]
- inhibition in vivo at 100 mg/kg [1]: 44%
- inhibition in vivo at 20 mg/kg [2, 3]: 41%

SMILES: CCCCCCCCOc1c(O)c2ccc(N)cc2n(C)c1=O [compound 22, 7-amino-3-octyloxy-4-hydroxy-1-methyl-2(1H)-quinolinone]
- inhibition in vivo at 100 mg/kg [1]: 57%
- inhibition in vivo at 20 mg/kg [2, 3]: 55%

SMILES: CNc1ccc2c(O)c(OCC=C(C)C)c(=O)n(C)c2c1 [compound 30, 7-methylamino-3-prenyloxy-4-hydroxy-1-methyl-2(1H)-quinolinone]
- inhibition in vivo at 100 mg/kg [1]: 44%
- inhibition in vivo at 20 mg/kg [2, 3]: 52%

SMILES: CCCCNc1ccc2c(OC)c(O)c(=O)[nH]c2c1 [compound 17, 7-butylamino-3-hydroxy-4-methoxy-2(1H)-quinolinone]
- inhibition in vivo at 100 mg/kg [1]: 45%
- inhibition in vivo at 20 mg/kg [2, 3]: 43%

SMILES: CCCCCCOc1c(O)c(=O)n(C)c2cc(NCCCC)ccc12 [compound 28, 7-butylamino-3-hydroxy-4-hexyloxy-1-methyl-2(1H)-quinolinone]
- inhibition in vivo at 100 mg/kg [1]: 42%
- inhibition in vivo at 20 mg/kg [2, 3]: 37%

SMILES: CCCCCCCCOc1c(O)c2ccc(NC(=O)c3ccccc3)cc2n(C)c1=O [compound 49, 7-benzoylamino-3-octyloxy-4-hydroxy-1-methyl-2(1H1)-quinolinone]
- inhibition in vivo at 100 mg/kg [1]: 46%
- inhibition in vivo at 20 mg/kg [2, 3]: 43%

SMILES: CNc1ccc2c(OC)c(OC(C)=O)c(=O)n(C)c2c1 [compound 9]
- inhibition in vivo at 100 mg/kg [1]: 45%
- inhibition in vivo at 20 mg/kg [2, 3]: 43%

SMILES: CCCCCCOc1c(O)c2ccc(N)cc2n(CC)c1=O [compound 32, 7-amino-3-hexyloxy-4-hydroxy-1-ethyl-2(1H)-quinolinone]
- inhibition in vivo at 100 mg/kg [1]: 44%
- inhibition in vivo at 20 mg/kg [2, 3]: 48%

SMILES: Cn1c(=O)c(O)c(O)c2ccc(N)cc21 [compound 8, 7-amino-3,4-dihydroxy-1-methyl-2(1H)-quinolinone]
- inhibition in vivo at 100 mg/kg [1]: 48%
- inhibition in vivo at 20 mg/kg [2, 3]: 41%

SMILES: CCCCCCCCCCOc1c(O)c(=O)n(CCC)c2cc(N)ccc12 [compound 34, 7-amino-3-hydroxy-4-decyloxy-1-propyl-2(1H)-quinolinone]
- inhibition in vivo at 100 mg/kg [1]: 40%
- inhibition in vivo at 20 mg/kg [2, 3]: 37%

SMILES: COc1c(O)c2ccc(N)cc2n(C)c1=O [compound 19, 7-amino-3-methoxy-4-hydroxy-1-methyl-2(1H)-quinolinone]
- inhibition in vivo at 100 mg/kg [1]: 44%
- inhibition in vivo at 20 mg/kg [2, 3]: 45%

SMILES: CCCCn1c(=O)c(OCC=C(C)C)c(O)c2ccc(NC)cc21 [compound 37, 7-methylamino-3-prenyloxy-4-hydroxy-1-butyl-2(1H)-quinolinone]
- inhibition in vivo at 100 mg/kg [1]: 42%
- inhibition in vivo at 20 mg/kg [2, 3]: 45%

SMILES: CCCCn1c(=O)c(O)c(OC)c2ccc(N(C)C)cc21 [compound 36, 7-dimethylamino-3-hydroxy-4-methoxy-1-butyl-2(1H)-quinolinone]
- inhibition in vivo at 100 mg/kg [1]: 41%
- inhibition in vivo at 20 mg/kg [2, 3]: 40%

SMILES: COc1ccc(/C=C/C(=O)Nc2ccccc2C(=O)O)cc1OC [Tranilast, reference compound]
- inhibition in vivo at 200 mg/kg ([1]; positive control Tranilast, 200 mg/kg p.o.): 54%
- inhibition in vivo at 200 mg/kg ([2]; Mus musculus, po, negative control Tranilast, 200 mg/kg p.o., ear thickness at 24 hours, read-out: Inhibition (%) of increase of ear thickness): 6%
- inhibition of delayed type hypersensitization (in words) ([2]; Tranilast, 200 mg/kg p.o.): did not inhibit delayed type hypersensitization

SMILES: CCCCCCCCNc1ccc2c(O)c(OC)c(=O)n(C)c2c1 [compound 24, 7-octylamino-3-methoxy-4-hydroxy-1-methyl-2(1H)-quinolinone]
- inhibition in vivo at 100 mg/kg [1]: 46%
- inhibition in vivo at 20 mg/kg [2, 3]: 44%

SMILES: CCCCOc1c(O)c(=O)n(CCC)c2cc(N)ccc12 [compound 33, 7-amino-3-hydroxy-4-butyloxy-1-propyl-2(1H)-quinolinone]
- inhibition in vivo at 100 mg/kg [1]: 40%
- inhibition in vivo at 20 mg/kg [2, 3]: 40%

SMILES: COc1c(OC(C)=O)c(=O)n(C)c2cc(N)ccc12 [compound 6, 7-amino-3-acetoxy-4-methoxy-1-methyl-2(1H)-quinolinone]
- inhibition in vivo at 100 mg/kg [1]: 46%
- inhibition in vivo at 20 mg/kg [2, 3]: 43%

SMILES: CCCCCCOc1c(O)c2ccc(NC(=O)/C=C/c3cc(OC)c(O)c(OC)c3)cc2n(C)c1=O [compound 43, 7-(4-hydroxy-3,5-dimethoxycinnamoylamino)-3-hexyloxy-4-hydroxy-1-methyl-2(1H)-quinolinone]
- inhibition in vivo at 100 mg/kg [1]: 49%
- inhibition in vivo at 20 mg/kg [2, 3]: 53%

SMILES: COc1c(O)c(=O)[nH]c2cc(N)ccc12 [compound 14, 7-amino-3-hydroxy-4-methoxy-2(1H)-quinolinone]
- inhibition in vivo at 100 mg/kg [1]: 44%
- inhibition in vivo at 20 mg/kg [2, 3]: 38%

SMILES: CCCCCCOc1c(O)c2ccc(N(C)C)cc2n(CCCC)c1=O [compound 35, 7-dimethylamino-3-hexyloxy-4-hydroxy-1-butyl-2(1H)-quinolinone]
- inhibition in vivo at 100 mg/kg [1]: 45%
- inhibition in vivo at 20 mg/kg [2, 3]: 46%

SMILES: CCCCNc1ccc2c(OC)c(OC(C)=O)c(=O)[nH]c2c1 [compound 16, 7-butylamino-3-acetoxy-4-methoxy-2(1H)-quinolinone]
- inhibition in vivo at 100 mg/kg [1]: 42%
- inhibition in vivo at 20 mg/kg [2, 3]: 36%

SMILES: CNc1ccc2c(OC)c(O)c(=O)n(C)c2c1 [compound 10, 7-methylamino-3-hydroxy-4-methoxy-1-methyl-2(1H)-quinolinone]
- inhibition in vivo at 100 mg/kg [1]: 42%
- inhibition in vivo at 20 mg/kg [2, 3]: 40%

SMILES: C=CCOc1c(O)c2ccc(NC)cc2n(C)c1=O [compound 29, 7-methylamino-3-(2-propenyloxy)-4-hydroxy-1-methyl-2(1H)-quinolinone]
- inhibition in vivo at 100 mg/kg [1]: 42%
- inhibition in vivo at 20 mg/kg [2, 3]: 48%

SMILES: COc1c(OC(C)=O)c(=O)[nH]c2cc(N)ccc12 [compound 15, 7-amino-3-acetoxy-4-methoxy-2(1H)-quinolinone]
- inhibition in vivo at 100 mg/kg [1]: 41%
- inhibition in vivo at 20 mg/kg [2, 3]: 40%

SMILES: CCCCCCCCOc1c(O)c2ccc(NCc3ccccc3)cc2n(C)c1=O [compound 47, 7-benzylamino-3-octyloxy-4-hydroxy-1-methyl-2(1H)-quinolinone]
- inhibition in vivo at 100 mg/kg [1]: 40%
- inhibition in vivo at 20 mg/kg [2, 3]: 48%

SMILES: CCCCCCCCOc1c(O)c(=O)n(C)c2cc(NC)ccc12 [compound 26, 7-methylamino-3-hydroxy-4-octyloxy-1-methyl-2(1H)-quinolinone]
- inhibition in vivo at 100 mg/kg [1]: 41%
- inhibition in vivo at 20 mg/kg [2, 3]: 39%

SMILES: CCCCn1c(=O)c(O)c(OCC=C(C)C)c2ccc(NC)cc21 [compound 38, 7-methylamino-3-hydroxy-4-prenyloxy-1-butyl-2(1H)-quinolinone]
- inhibition in vivo at 100 mg/kg [1]: 40%
- inhibition in vivo at 20 mg/kg [2, 3]: 37%

SMILES: CCOc1c(OC(C)=O)c(=O)n(C)c2cc(N)ccc12 [compound 20, 7-amino-3-acetoxy-4-ethoxy-1-methyl-2(1H)-quinolinone]
- inhibition in vivo at 100 mg/kg [1]: 41%
- inhibition in vivo at 20 mg/kg [2, 3]: 43%
